How the values were obtained:
[1] = Body weight and toxic side-effects in the DTH study; format: in vivo, mice; conditions: oral
Experimental: Three hours after the last dose, the antigen challenge was performed on the ears as described above. Dexamethasone was given at 1 mg/kg orally by gavage 3 h before sensitization and once daily with the final dose given 3 h prior to antigen challenge (a total of 7 administrations). All administrations were given in a volume of 10 mL/kg.
Such high dosing (overdose) is, however, not suitable for treatment of humans due to severe side effects of the corticosteroid and was only used to validate the responsiveness of the model.

[2] = system: BALB/cJW mice; experiment: Delayed-type hypersensitivity (DTH) reaction, mouse ear swelling; format: in vivo
Experimental: The anti-inflammatory and anti-allergic effects of compound 1a was assessed in a mouse model of skin delayed-type hypersensitivity (DTH) reactions and compared to a vehicle control and to the reference drug dexamethasone. DTH reactions are antigen-specific cell-mediated immune responses, driven primarily by T helper type 1 (Th1) cells, similar to the tuberculin immunization response. The immune reaction induced by an ovalbumin challenge to animals previously sensitized with ovalbumin in Complete Freund's Adjuvant, is characterized by swelling (edema) at the site of challenge, e.g. the mouse ear. Dexamethasone, an anti-inflammatory steroid, reduces cell-mediated immune responses and was employed to validate the responsiveness of the assay to pharmacological treatment.
Female BALB/cJW mice were bred at the University of Lodz, Lodz, Poland and housed in groups of 8 in makrolon cages with a 12 h light-dark cycle. Mice were given free access to food (Agropol S. j., Motycz, Poland) and water.
Group size was n=8 mice unless otherwise stated. Test compound was freshly prepared before administration.
Sensitization: The protein antigen, ovalbumin, was reconstituted in PBS at 4 mg/ml. […] The emulsion was tested by putting a drop of emulsion onto PBS; if the emulsion remained as a light droplet on the PBS, the emulsion was deemed ready. […]
Challenge: On the sixth day after sensitization, DTH was elicited by challenging animals subcutaneously (gauge 30 needle, B. Braun Melsungen, Melsungen, Germany) in the left ears with 10 μL of a 1% suspension of heat-aggregated ovalbumin (HOVA) (100 μg ovalbumin per mouse). […] Ear thickness was measured with a precise spring-loaded caliper (Art. No, 7309, Mltutoyo, Kawasaki, Japan) before challenge, and 24 h after challenge. […]
To account for individual variability, the increase in right ear thickness, before and 24 h after administration of PBS, was subtracted from the HOVA-induced increase in left ear thickness. The increase in ear thickness was calculated by the difference between ear thickness before and 24 h after antigen challenge. […]

[3] = system: RBL-2H3 cells; experiment: Maximum tolerated concentration (cytotoxicity by lactate dehydrogenase release); format: cell-based, rat
From the text: A commercially available cytotoxicity test was used (Promega Cytotox-One cat. #67891).
The safety index (SI) of a test compound Is the ratio between the maximum tolerated concentration and the 1C50 and is used as a measure of the relative safety of the test compound.

CCCCCCCCCCCCCC[N+](C)(C)CCCS(=O)(=O)[O-] [Compound 1a, 3-(N,N-Dimethylmyristylammonio)-Propanesulfonate]
Toxic side-effects during the course of the study [1]: no toxic side-effects
Inhibition of DTH response relative to that of a high dose of dexamethasone ([2]; 1a oral vs dexamethasone 1 mg/kg): 65%
Inhibition of mouse ear swelling (DTH response) ([2]; oral, 1a 100 mg/kg (loading dose, then maintenance doses), dexamethasone 1.0 mg/kg once daily, 24 h after ovalbumin challenge): 32%
MTC (maximum tolerated concentration) ([3]; highest concentration not causing cytotoxicity, LDH release): 100 µM
SI (safety index, ratio MTC/IC50) ([3]; ratio between maximum tolerated concentration and IC50): 31.3
